Our source for the Activity values is ChEMBL document CHEMBL1153129, “Multiple bond-conjugated photoinduced nitric oxide releaser working with two-photon excitation” (Bioorg Med Chem Lett, 2010).

The nature of data set [1]: Induction of NO release per molar ratio of compound at 250 uM irradiated with 400 to 440 nm light in presence of Fe-DETC complex by ESR spectrometry. Type of data set: physicochemical.
Data set [2] in a line: Induction of NO release per molar ratio of compound at 250 uM irradiated with 450 to 480 nm light in presence of Fe-DETC complex by ESR spectrometry. Type of data set: physicochemical.

For the compound `COc1cc(/C=C/c2cc(C)c([N+](=O)[O-])c(C)c2)c(OC)cc1C#Cc1cc(OC)c(/C=C/c2cc(C)c([N+](=O)[O-])c(C)c2)cc1OC`, the Activity in data set [1] came out at 9.2%.

In the case of `COc1cc(/C=C/c2cc(OC)c(/C=C/c3cc(C)c([N+](=O)[O-])c(C)c3)cc2OC)c(OC)cc1/C=C/c1cc(C)c([N+](=O)[O-])c(C)c1`, the values for the Activity in data set [1] and in data set [2] were 1% and 0.86%, respectively.

On to `COc1cc(/C=C/c2cc(C)c([N+](=O)[O-])c(C)c2)c(OC)cc1C#CC#Cc1cc(OC)c(/C=C/c2cc(C)c([N+](=O)[O-])c(C)c2)cc1OC`, for which the Activity in data set [1] was found to be 9.7%.

As for `COc1cc(/C=C/c2cc(C)c([N+](=O)[O-])c(C)c2)c(OC)cc1/C=C/C=C/c1cc(OC)c(/C=C/c2cc(C)c([N+](=O)[O-])c(C)c2)cc1OC`, the Activity in data set [1] is 0.96%; in data set [2], 0.54%.
